Laboratory results taken from patent US20260007634A1, “PHARMACEUTICAL COMPOSITIONS FOR THE TREATMENT OF ALLERGIC DISEASES” (KINKI UNIVERSITY, priority 2022, published 2026).

Experiments:
NIK = target: T1, NIK (Mus musculus, UniProt Q9WUL6); assay: BAFF-induced NIK activation in B cells (Western blotting, phospho-NIK); format: cell-based
T1 construct: Proteins were extracted with cell lysate and used as samples; endogenous in cells; host or cells: primary splenic B cells from 6-week-old male Balb/c mice
Procedure: Spleens were harvested from 6-week-old male Balb/c mice and B cells were isolated. After isolation, the cells were seeded in […] dish and cultured in RPMI 1640 medium for 1 day and used as control. In addition, B cells were seeded into 100 mm^2 dish, and after 1 day of culture, 100 ng/mL BAFF was added and cultured for 1 h. Furthermore, B cells were seeded in […] dish, and after 1 day of culture, 100 μM mangiferin, 10 μM mangiferin 8a, 10 μM norathyriol, 20 μM 1,3,5,6-tetrahydroxyxanthone, 10 μM xanthohydrol, 10 μM of α-mangostin, and 10 μM of γ-mangostin were added to B cells, and after 23 h, 100 ng/mL BAFF was added to each, and the cells were incubated for 1 h. All were incubated at 37° C. and 5% CO2.
Proteins were extracted with cell lysate and used as samples. Each sample was transferred to a PVDF membrane after SDSPAGE and assayed with anti-phospho-NIK, anti-NIK, anti-NF-κB p52, anti-NF-κB p65 and anti-Lamin antibodies.
The antibody species is indicated in the vertical direction. Specifically, in the case of anti-phospho-NIK antibody (described as “Phospho-NIK”), anti-NIK antibody (described as “NIK”), anti-NF-κB p52 antibody (described as “NF-κB p52 nuclear”), anti-NF-κB p65 antibody (described as “NF-κB p65 nuclear”) and anti-Lamin antibody (described as “Lamin”).

IL-4 = assay: Auricular tissue IL-4 ELISA, atopic dermatitis mice; format: in vivo, mouse; conditions: day 7, topical application, control 56, vehicle 152
Procedure: (§1) MC903 at 2 nM was applied to the right auricle of a 6-week-old male Balb/c (Japan SLC Inc.). Starting 8 h later, 5% norathyriol aqueous solution (1 mL of ethanol containing […] of norathyriol), betamethasone ointment, and delgocitinib ointment were applied to the auricle for 7 days. The measurement of auricular skin swelling was calculated by calipers. The day on which the first application of the compound was made was defined as day 0. Betamethasone and delgocitinib are currently in clinical use in atopic dermatitis and were used as control drugs in this example.
The mouse IL-4 ELISA kit (R&D) was used for this measurement.

[1] = system: B cells collected from mice; assay: BAFF-induced differentiation into plasma cells (CD138 flow cytometry); format: cell-based, mouse; conditions: 100 ng/mL BAFF, 10 days; 100 μM mangiferin, 20 μM 1,3,5,6-tetrahydroxyxanthone, 10 μM others; vs BAFF-added group
Procedure: B cells collected from mice were cultured in RPMI 1640 medium for 1 day. Then, 100 μM mangiferin, 10 μM mangiferin 8a, 10 μM norathyriol, 20 μM 1,3,5,6-tetrahydroxyxanthone, 10 μM xanthohydrol, 10 μM α-mangostin, 10 μM of γ-mangostin were added to B cell, and after 1 day of culture, 100 ng/mL of BAFF was added, followed by 10 days of culture. After 10 days of culture, cells were stained with anti-CD138 antibody, a marker of plasma cells, and CD138 expression was measured using BD LSRFortessa.
In all figures, the horizontal axis represents the expression level of CD138 and the vertical axis represents the number of cells.

[2] = system: Balb/c mice with ovalbumin-induced food allergy; assay: Frequency of diarrhea, ovalbumin-induced food allergy mice; format: in vivo, mouse; conditions: OVA food allergy; oral daily 14 days from day 14, 10 mg/kg (dexamethasone 2 mg/kg); measured day 28; vs vehicle group
Procedure: A 0.2 mL dose of 10 μg ovalbumin (OVA) and 1 mg Alum mixture was administered to 6-week-old female Balb/c mice (Japan SLC Inc.) (day 0 of the example). Alum was used as an adjuvant. Seven days later, the Balb/c mice were immunized again with a 0.2 mL injection of the above mixture. Starting on day 14, mice were orally treated with 10 mg/kg of norathyriol, 10 mg/kg of mangiferin 8a, 10 mg/kg of tofacitinib (JAK inhibitor), 2 mg/kg of dexamethasone (steroid) and 10 mg/kg of olopatadine (antihistamine) daily for 14 consecutive days. Starting on day 14, 10 mg OVA was administered orally every other day […], and the frequency of diarrhea was measured after the final administration on day 28. Note that tofacitinib, dexamethasone, and olopatadine are currently in clinical use in food allergy and were used as control drugs in this example.
The group that was just immunized with OVA is called the subject group, the one that received norathyriol is called the norathyriol group, the one that received mangiferin 8a is called the mangiferin 8a group, the one that received tofacitinib is called the tofacitinib group, the one that received dexamethasone is called the dexamethasone group, and the one that received olopatadine is called the olopatadine group. Each group consisted of five animals.

[3] = system: Balb/c mice with atopic dermatitis (MC903 applied to the auricle); assay: Auricular swelling in MC903-induced atopic dermatitis mice; format: in vivo, mouse
Procedure: as §1
Those without MC903 or norathyriol are called the control group, those with MC903 are called the vehicle group, those with 5% norathyriol aqueous are called the 5% norathyriol-applied group, those with betamethasone ointment are called the betamethasone-applied group, and those with delgocitinib ointment is referred to as the delgocitinib-applied group.
Solid white circles indicate the control group (labeled “control”). Solid black squares indicate the vehicle group (labeled “vehicle”), dotted black diamonds indicate the 5% norathyriol aqueous application group (labeled “MC903+5% norathyriol”), dashed black crosses indicate the betamethasone application group (labeled “MC903+betamethasone ointment”), and single-dotted black dots indicate the delgocitinib application group (labeled “MC903+delgocitinib ointment”).

TNFα = assay: LPS-stimulated TNFα secretion in B cells (ELISA); format: cell-based, mouse; conditions: 10 μM compound, 10 μg/mL LPS 2 days, control 15.13, LPS 296.31
Procedure: Mouse B cells were used to examine the inhibition of compounds on TNFα secretion in LPS stimulation.
Mouse B cells were cultured in RPMI 1640 medium for 1 day. Then, 10 μM mangiferin 8a and 10 μM norathyriol were added to B cells, and after 1 day of culture, 10 μg/mL of LPS was added to each, followed by 2 days of culture.
Thus, the samples were divided into “control” with no treatment, “10 μg/mL LPS+10 μM mangiferin 8a” to which 10 μg/mL LPS and 10 μM mangiferin 8a were added, and “10 μg/mL LPS+10 μM norathyriol” to which 10 μg/mL LPS and 10 μM norathyriol were added and only 10 μg/mL LPS was added (“10 μg/L LPS”).
After these samples were incubated for 2 days, the culture supernatant was collected and TNFα secretion was measured by enzyme-linked immunosorbent assay (ELISA). The mouse TNFα ELISA kit (R&D) was used for this measurement.

T1 sequence (Q9WUL6 whole entry): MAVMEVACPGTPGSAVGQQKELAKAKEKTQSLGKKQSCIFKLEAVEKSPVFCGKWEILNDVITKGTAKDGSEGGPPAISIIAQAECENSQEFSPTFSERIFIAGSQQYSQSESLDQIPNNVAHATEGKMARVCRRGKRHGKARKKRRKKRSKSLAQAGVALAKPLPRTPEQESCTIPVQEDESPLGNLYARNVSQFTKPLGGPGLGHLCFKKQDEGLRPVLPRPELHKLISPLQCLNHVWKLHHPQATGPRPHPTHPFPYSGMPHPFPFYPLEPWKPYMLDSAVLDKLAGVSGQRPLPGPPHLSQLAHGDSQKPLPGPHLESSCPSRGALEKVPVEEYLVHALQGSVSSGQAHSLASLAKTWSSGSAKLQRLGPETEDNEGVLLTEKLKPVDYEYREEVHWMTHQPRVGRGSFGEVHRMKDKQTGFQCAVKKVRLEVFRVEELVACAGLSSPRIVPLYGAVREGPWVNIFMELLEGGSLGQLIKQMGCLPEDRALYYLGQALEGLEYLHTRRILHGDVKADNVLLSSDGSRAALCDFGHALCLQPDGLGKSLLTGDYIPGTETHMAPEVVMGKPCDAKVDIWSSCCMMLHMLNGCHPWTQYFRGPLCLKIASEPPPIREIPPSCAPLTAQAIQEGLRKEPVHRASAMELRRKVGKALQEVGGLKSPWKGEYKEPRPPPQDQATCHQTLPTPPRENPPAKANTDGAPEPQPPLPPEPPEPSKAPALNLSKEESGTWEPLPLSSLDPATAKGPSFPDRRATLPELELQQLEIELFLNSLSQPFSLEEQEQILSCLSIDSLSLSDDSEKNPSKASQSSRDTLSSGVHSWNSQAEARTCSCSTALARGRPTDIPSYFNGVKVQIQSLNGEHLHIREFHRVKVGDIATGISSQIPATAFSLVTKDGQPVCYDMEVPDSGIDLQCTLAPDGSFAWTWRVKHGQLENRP

How did the “phospho-NIK band (immunoblotting)” value (NIK; 100 ng/mL BAFF 1 h after 23 h compound, 100 μM mangiferin, 20 μM 1,3,5,6-tetrahydroxyxanthone, 10 μM others) turn out when `O=c1c2cc(O)c(O)cc2oc2cc(O)cc(O)c12` [norathyriol, 1,3,6,7-tetrahydroxyxanthone] was run?
Its value is “fainter”.

What about the “inhibition of NIK activity compared with mangiferin” value (NIK; general statement in the description, referring to the examples) of the same compound?
Its value is “more inhibition of NIK activity than mangiferin”.

And the IL-4 secretion (IL-4)?
Its IL-4 secretion is 94 pg/mL.

What about the CD138 expression [1] of the same compound?
The CD138 expression was “significantly decreased CD138 expression”.

And the frequency of diarrhea [2]?
The frequency of diarrhea was “showed a marked decrease in the frequency of diarrhea”.

And the auricular skin swelling ([3]; male Balb/c, MC903 on right auricle, 5% norathyriol aqueous solution, betamethasone ointment or delgocitinib ointment applied to auricle for 7 days, vs vehicle group)?
Its auricular skin swelling is “swelling was significantly reduced”.

And the “swelling and redness of auricular skin (photograph)” value ([3]; right auricle at day 7, topical 5% norathyriol aqueous, betamethasone ointment, delgocitinib ointment)?
The value was “showed some redness, but not as much as in the target group”.

What about the TNFα secretion (TNFα) of the same compound?
Its TNFα secretion is 64.13 pg/mL.
